# Measurements published in patent US9258998B2, “Methods for controlling flower development in plants” (Yale University, priority 2009, dated 2016).
# Experiments:
# Format in all cases: in vivo
# [1] = tested on: ts1 mutant (ts1-ref/ts1-ref) plants; assay: Jasmonic acid treatment of ts1 mutant maize tassels
# Method: (§1) Maize plants were grown under greenhouse conditions. Two seeds were planted in 2-gallon reusable pots containing Super-Fine Germinating Mix (Fafard, Agawam, Mass., USA) or Redi-earth Professional Growing Mix (Sun Gro, Bellevue, Wash., USA). Fertilization was performed with controlled release Osmocote Plus 15-9-12 (Scotts, Marysville, Ohio, USA) following the manufacturer recommendations. Additional watering was performed with 4% ammonium iron citrate (Sigma-Aldrich) every 2 weeks to prevent chlorosis. Greenhouse average temperatures were 28° C. (day) and 21° C. (night). Supplemental lightning was provided to achieve a 16:8 hour photoperiod yearlong.
# (§2) Tassels of about 1 cm were considered to be at an ideal stage to initiate chemical treatments. Since a thick leaf whorl covers the maize tassel at this time of development, only a destructive dissection of the plant permits to assess with certainty the stage of tassel development (Bonnet, 1940, J. Agricult. Res. 60:25; Bonnet, 1948, Ann. Mo. Bot. Gard. 35:269). Additionally, the sex determination phase was reached within a wide time window, between 28 and 46 days post-planting, depending on the growing conditions. Leaf number, node number or internode distance were not always reliable criteria to predict the tassel developmental stage.
# Seedlings from a family segregating 1:1 for wild-type (ts1-ref/Ts1) and ts1 mutant (ts1-ref/ts1-ref) plants were genotyped for the Ts1 and ts1-ref alleles with a PCR-based assay. […] Jasmonic acid (JA, Sigma-Aldrich) was dissolved at a concentration of 200 mM in absolute ethanol and stored at −20° C. Prior to plant treatment, the JA stock solution was diluted to a concentration of 1 mM in deionized water. Control plants were treated with a 0.005% ethanol solution (“blank” treatment or negative control). One ml of the corresponding solution was applied into the apical leaf cavity of each plant. Treatments were performed three times at 48-hour intervals.
# The developmental timing of the pistil abortion process occurs in tassel inflorescences when they are 1.0 to 3.0 cm in length (Irish & Nelson, 1993, Am. J. Bot. 80:292), which was also the stage at which ts1 expression occurred in the subtending glumes (FIGS. 6B to 6D). A 0.005% ethanol solution, with or without 1 mM JA, was applied to tassels of ˜1 cm in wildtype (ts1-ref/+) or ts1 mutant (ts1-ref/ts1-ref) sibling plants.
# [2] = tested on: wildtype (ts1-ref/+) sibling plants; assay: Jasmonic acid treatment of heterozygous wild-type sibling maize plants; details: 1 mM JA, three times at 48-hour intervals
# Method: as §1
# as §2, with “stage. […]” for “stage.”
# [3] = tested on: mutant ts2-ref/ts2-ref and ts2-ref/+ plants; assay: Jasmonic acid treatment of ts2 maize plants; details: JA applied as for ts1 plants
# Method: as §1
# as §2, with “stage. […]” for “stage.”
# [4] = 1 mM JA, three times at 48-hour intervals
compound,measurement,setting,value
"CC/C=C\C[C@H]1C(=O)CC[C@@H]1CC(=O)O [JA, (1R,2R)-3-oxo-2-(2Z)-2-pentenylcyclopentaneacetic acid]",sexual phenotype of tassel (feminization; staminate spikelets),"[1]; 1 mM JA in 0.005% ethanol, 1 ml into apical leaf cavity, three times at 48-hour intervals, tassels of ~1 cm",reversed feminization
same,glume morphology of treated ts1 mutants,[1]; [4],"elongated, were covered with numerous trichomes, and had a ring of anthocyanin deposited at the base"
same,time to appearance of wildtype rescue in glumes after treatment,[1]; [4],3 to 4 weeks
same,stamen emergence from treated ts1 mutant spikelets,[1]; later in floral development,stamens emerged
same,pollen viability of staminate florets from rescued ts1/ts1 plants,[1]; pollen used for self-pollination and test crosses,produced viable pollen
same,completeness of rescued tassel inflorescence phenotype,"[1]; some spikelets bisexual, others at base pistillate",incomplete
same,effect of treatment on heterozygous ts1-ref/+ sibs,[2],nor did JA treatment affect heterozygous ts1-ref/+ sibs
same,response of ts2 plants to treatment,[3],responded in the same manner as the JA-treated ts1 mutants
